Results on two compounds are retold here after article PMC5623949, “Exploiting the 2-Amino-1,3,4-thiadiazole Scaffold To Inhibit Trypanosoma brucei Pteridine Reductase in Support of Early-Stage Drug Discovery” (ACS Omega, 2017).

“Also recorded” adds a separate entry of the source. Like-named read-outs stand apart in the source and are kept apart here.

In data set [1] the test system is T. b. brucei Lister 427 bloodstream forms. The experiment in a line: T. brucei resazurin assay for MTX potentiation and folic acid supplementation. Format: cell-based, Trypanosoma brucei brucei. The conditions noted are these: for antiparasitic effect as single agent: compound alone, 4m at 50 μM. The method, then:
T. b. brucei Lister 427 bloodstream forms were grown at 37 °C and 5% CO2 in a complete HMI-9 medium, supplemented with 10% FCS and 100 UI/mL of penicillin/streptomycin. The cultures were diluted until a cell density of 2 × 10^6/mL was reached. The efficacy of compounds against T. brucei bloodstream forms was evaluated using a modified resazurin-based assay previously described.[46] The compounds were prepared from a stock solution in 10 mM DMSO and diluted in HMI-9 (supplemented or not with 1 mM folic acid, Sigma-Aldrich) to 40 μM work solution (0.4% DMSO, with the DMSO limit in the assay being 0.4%). […] The 40 μM work solution was then used to perform serial dilutions (1:2) in a 96-well plate. Upon compound addition to the test plate, the mid-log bloodstream forms were added (100 μL) in complete HMI-9 medium (supplemented or not with 1 mM folic acid) at a final cell density of 1 × 10^4/mL in a final well volume of 200 μL with a maximum DMSO concentration of 0.2%. Following incubation for 72 h at 37 °C and 5% CO2, 20 μL of 0.5 mM resazurin solution was added, and the plates were incubated further for 4 h under the same conditions. Fluorescence was measured at 540 and 620 nm excitation and emission wavelengths, respectively, using a Synergy 2 multi-mode reader (BioTek). […] This approach requires the use of both compounds at their EC50 potency in the combination, which is impossible to be detected for compound 4m having no intrinsic antiparasitic activity as a single agent at the tested concentrations. Folic acid (1 mM) was chosen on the basis of the following experiments. The stock solution of 10 mM folic acid dissolved in NaOH solution was used to perform a dose–response curve with folic acid alone to evaluate the maximum amount we could use without compromising parasite growth due to pH modification of the media. […] The IC50 values reported are the averages of the results obtained in at least two independent experiments. Pentamidine was used as the reference drug and internal control in all assays.
In general terms: Alamar Blue is a resazurin reagent that responds to reducing activity.

The next data set concerns the target CYP2D6 (Homo sapiens, UniProt P10635). In words: in vitro. The arrangement: cytochrome P450 isoform inhibition liability assay.
The target in a further data set is CYP3A4 (Homo sapiens, UniProt P08684). In words: in vitro. The arrangement: cytochrome P450 isoform inhibition liability assay.
Sequence of CYP3A4 (P08684 whole entry, canonical isoform): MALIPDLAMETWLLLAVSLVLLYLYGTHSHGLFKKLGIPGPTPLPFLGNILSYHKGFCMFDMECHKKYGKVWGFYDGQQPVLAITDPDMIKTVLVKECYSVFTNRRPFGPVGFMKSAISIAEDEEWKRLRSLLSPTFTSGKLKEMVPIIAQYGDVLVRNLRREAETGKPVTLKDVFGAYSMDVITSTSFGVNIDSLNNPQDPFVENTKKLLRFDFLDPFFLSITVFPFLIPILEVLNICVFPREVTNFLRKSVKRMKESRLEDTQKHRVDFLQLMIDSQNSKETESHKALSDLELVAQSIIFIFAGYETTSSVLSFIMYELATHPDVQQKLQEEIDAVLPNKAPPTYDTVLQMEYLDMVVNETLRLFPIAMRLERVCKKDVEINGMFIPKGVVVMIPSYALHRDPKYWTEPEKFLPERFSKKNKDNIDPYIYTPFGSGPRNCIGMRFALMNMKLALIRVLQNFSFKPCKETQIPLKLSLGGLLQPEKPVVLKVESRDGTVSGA
In a further data set the test system is 786-O. In words: cells. The arrangement: mitochondrial toxicity in 786-O cells. The settings on record: Homo sapiens, 786-0. The method, then:
Independent of the effect of any antiparasitic potential of compounds, they were evaluated using a panel of early-toxicity assays comprising cytotoxicity (A549, human lung adenocarcinoma epithelial cell line and WI-38, human lung fibroblasts), mitochondrial toxicity (786-O, human renal carcinoma cell line), hERG inhibition,[31] cytochrome P450 inhibition (CYP1A2, CYP2C9, CYP2C19, CYP2D6, and CYP3A4),[31] and Aurora B kinase inhibition. […] For the two compounds active against TbPTR1 (4m and 4o), IC50 against hERG, cytochrome P450, and mitochondrial toxicity were determined (reported in Supporting Information). We observed that the dose of compounds 4m, 4o, 4c, and 3k was 4 μM in the potentiation assays. […] In the case of hERG, CYP2D6, CYP2A9, CYP2C19, and mitochondrial toxicity, there is a selectivity index of around 3–4 fold, thus showing an acceptable profile.

Data set [2] is described as follows: in vitro. Further details: cytotoxicity, per cent cell growth of WI-38 fibroblasts. The conditions noted are these: human, wi-38 cells; read-out: % cell growth W1-38 at 10uM.
The nature of data set [3]: in vitro. Further details: cytotoxicity, per cent cell growth of A549 cells. The settings on record: human, a549 cells; read-out: % cell growth A549 at 10uM.
A further data set concerns the target T1, hERG (Homo sapiens, UniProt Q12809).
T1 construct: gene KCNH2
Further details: hERG inhibition liability assay.

Data set [4] has as its system T. b. brucei Lister 427 bloodstream forms. The experiment in a line: In vitro activity against T. brucei (HTS SYBR Green I growth inhibition assay). The settings on record: 50 μM, standard deviation within ±10% of the value; for inhibition at 50 µM: Trypanosoma brucei, read-out: % Inhibition T. brucei at 50 μM. It counts as cell-based, Trypanosoma brucei brucei.

Sequence of CYP2D6 (P10635 whole entry, canonical isoform): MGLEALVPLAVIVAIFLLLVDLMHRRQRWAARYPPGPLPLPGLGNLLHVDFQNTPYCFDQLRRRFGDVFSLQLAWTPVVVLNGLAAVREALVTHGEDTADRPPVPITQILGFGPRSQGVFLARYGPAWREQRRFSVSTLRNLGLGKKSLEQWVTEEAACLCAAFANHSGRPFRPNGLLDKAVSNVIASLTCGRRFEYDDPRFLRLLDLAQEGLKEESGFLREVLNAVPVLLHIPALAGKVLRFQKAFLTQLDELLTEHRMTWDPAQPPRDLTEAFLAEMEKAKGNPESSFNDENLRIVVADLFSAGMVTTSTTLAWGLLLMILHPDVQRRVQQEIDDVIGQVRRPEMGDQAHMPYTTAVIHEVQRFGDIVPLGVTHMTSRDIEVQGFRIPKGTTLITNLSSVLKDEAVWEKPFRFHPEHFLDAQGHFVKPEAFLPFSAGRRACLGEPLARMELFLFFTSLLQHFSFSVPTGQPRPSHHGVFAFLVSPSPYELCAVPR
T1 sequence (Q12809 whole entry): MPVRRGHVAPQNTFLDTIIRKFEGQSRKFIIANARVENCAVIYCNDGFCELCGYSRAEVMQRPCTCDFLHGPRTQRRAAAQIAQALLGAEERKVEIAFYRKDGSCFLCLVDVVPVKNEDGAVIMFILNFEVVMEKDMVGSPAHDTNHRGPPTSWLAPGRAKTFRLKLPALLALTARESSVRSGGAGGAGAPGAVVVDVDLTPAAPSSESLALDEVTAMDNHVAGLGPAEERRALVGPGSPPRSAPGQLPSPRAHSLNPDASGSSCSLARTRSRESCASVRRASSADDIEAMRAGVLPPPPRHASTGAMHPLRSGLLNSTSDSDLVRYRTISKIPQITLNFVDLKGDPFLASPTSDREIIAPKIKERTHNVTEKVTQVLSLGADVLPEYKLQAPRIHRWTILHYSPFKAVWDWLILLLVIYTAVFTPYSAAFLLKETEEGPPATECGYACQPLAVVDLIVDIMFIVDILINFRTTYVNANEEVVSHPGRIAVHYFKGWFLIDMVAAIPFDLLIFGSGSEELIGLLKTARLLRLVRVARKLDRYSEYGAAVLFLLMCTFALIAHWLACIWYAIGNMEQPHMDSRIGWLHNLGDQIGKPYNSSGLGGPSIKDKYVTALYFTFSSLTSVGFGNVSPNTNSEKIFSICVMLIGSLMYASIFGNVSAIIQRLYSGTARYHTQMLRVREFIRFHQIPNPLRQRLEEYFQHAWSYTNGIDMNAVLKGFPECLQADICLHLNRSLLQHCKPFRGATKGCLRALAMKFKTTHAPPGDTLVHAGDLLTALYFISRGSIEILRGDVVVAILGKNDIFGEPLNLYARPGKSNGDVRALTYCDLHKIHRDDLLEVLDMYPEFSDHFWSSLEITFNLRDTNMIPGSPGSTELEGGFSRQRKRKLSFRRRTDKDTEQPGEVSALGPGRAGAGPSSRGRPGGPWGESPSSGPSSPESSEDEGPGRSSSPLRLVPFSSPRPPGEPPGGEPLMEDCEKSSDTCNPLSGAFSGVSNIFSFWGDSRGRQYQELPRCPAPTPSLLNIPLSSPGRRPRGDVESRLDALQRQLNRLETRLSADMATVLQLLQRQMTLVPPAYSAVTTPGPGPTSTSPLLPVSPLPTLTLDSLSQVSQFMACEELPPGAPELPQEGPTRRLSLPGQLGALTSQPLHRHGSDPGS

Take `Nc1nnc(NCc2ccc(-c3ccccc3)cc2)s1` [4m]: the “effect of 1 mM folic acid on T. b. brucei growth inhibition” value in data set [1] (1 mM folic acid, MTX alone or equimolar 4m + MTX) was “reversed; also recorded: rescue cell growth”. The “antiparasitic effect as single agent” value in data set [1] is “did not show any significant antiparasitic effect”. The results for the IC50 on CYP2D6, at CYP3A4 and on hERG were 11.5 µM, 12.1 µM and 3.6 µM, respectively. The inhibition – broadly, the change of the read-out against control, counted positive when it falls – at 10 µM in the data set with 786-O is -2.5 ± 6.1%. Further, the viability at 10 µM in the data set “in vitro [2]” worked out at 95.9 ± 18.6%; in the data set “in vitro [3]” it was 112 ± 9.5%. Also, the inhibition at 50 µM in data set [4] worked out at 6.6%.
With `Nc1nnc(NCCc2cccs2)s1` [4o, N2G(2G(thiophenG2Gyl)ethyl)G1,3,4GthiadiazoleG2,5Gdiamine], the “antiparasitic effect as single agent” value in data set [1] is reported as “low T. brucei cell inhibitory activity”. Moreover, the IC50 (commonly the concentration needed to halve the response being measured) worked out at 12.4 µM at CYP2D6, 34.4 µM on CYP3A4 and 3.1 µM on hERG. In the data set with 786-O, the inhibition at 10 µM worked out at 0.5 ± 4.8%. Moreover, the viability at 10 µM was found to be 96.7 ± 13.5% in “in vitro [2]” and 105 ± 11.4% in “in vitro [3]”. Also, the “% Inhibition T. brucei at 50 μM” value in data set [4] is reported as “poor antiparasitic activity”. In addition, the inhibition at 50 µM in data set [4] amounted to 37.9%.
